The values below come from US11878978B1, “Pyrrolo[2,3-c]quinoline compounds as CK2 inhibitors” (KING FAISAL UNIVERSITY, priority 2023, dated 2024).

Structures are written as SMILES.

Assay [1] relates to PC3 (prostate). The assay can be described thus: In vitro cytotoxic activity assay (MTT), PC3. It counts as cell-based. The settings on record: Homo sapiens, Prostate cell; PC3 (prostate) cells, exposed for 96 hours; read-out: IC50, concentration of compound eliciting a 50% inhibition of cell proliferation. The protocol:
(§1) Compounds 1-12 were screened for their in vitro cytotoxic activity utilizing a 3-(4,5-dimethyl-thiazol-2-yl)-2,5-diphenyltetrazolium bromide (MTT) assay against selected cancer human cell lines consisting of PC3 (prostate), HCT116 (colon), A375 (melanoma), H1299 (lung), MIAPaCa-2 (pancreas), HL60 (leukemia), MCF7 (breast), MDA-MB-231 (breast) (T. Mosmann, J. Immunol. Meth., 1983, 65, 55-63). The cells were cultured at 37° C. in RMPI1640 medium supplemented with 10% fetal bovine serum, 50 IU/mL penicillin, and 50 μg/mL streptomycin in a 5% CO2 incubator. All cells were sub-cultured 3 times/week by trypsinisation. Viable cells were seeded and allowed to adhere for 12 h before a test drug was added in 96-well plates at an initial density of 1.0×10^5 cells/mL. Tumour cell lines were separately exposed to various concentrations of the tested compounds followed by incubation at a temperature of 37° C. during 96 h inside a medium of fresh RMPI 1640. Cells were subsequently incubated at 37° C. using MTT at 0.5 mg/mL during 4 h. After removal of supernatant, formazan crystals were dissolved in isopropanol and the optical density was measured at 570 nm. CX-4945 was used as a positive control.

Assay [2] has as its system HCT116 (colon). As to the kind of experiment: In vitro cytotoxic activity assay (MTT), HCT116. Format: cell-based. The settings on record: Homo sapiens, HCT-116; HCT116 (colon) cells, exposed for 96 hours; read-out: IC50, concentration of compound eliciting a 50% inhibition of cell proliferation. On the procedure:
as §1

Assay [3] deals with A375 (melanoma). As to the kind of experiment: In vitro cytotoxic activity assay (MTT), A375. The note with it: Homo sapiens, A-375; A375 (melanoma) cells, exposed for 96 hours; read-out: IC50, concentration of compound eliciting a 50% inhibition of cell proliferation. Format: cell-based. On the procedure:
as §1

Assay [4] has as its system H1299 (lung). The assay can be described thus: In vitro cytotoxic activity assay (MTT), H1299. Format: cell-based. The note with it: Homo sapiens, NCI-H1299; H1299 (lung) cells, exposed for 96 hours; read-out: IC50, concentration of compound eliciting a 50% inhibition of cell proliferation. The protocol:
as §1

Assay [5] concerns MIAPaCa-2 (pancreas). The assay can be described thus: In vitro cytotoxic activity assay (MTT), MIAPaCa-2. Format: cell-based. The settings on record: Homo sapiens, MIA PaCa-2; MIAPaCa-2 (pancreas) cells, exposed for 96 hours; read-out: IC50, concentration of compound eliciting a 50% inhibition of cell proliferation. On the procedure:
as §1

In assay [6] the test system is HL60 (leukemia). As to the kind of experiment: In vitro cytotoxic activity assay (MTT), HL60. Format: cell-based. The note with it: Homo sapiens, HL-60; HL60 (leukemia) cells, exposed for 96 hours; read-out: IC50, concentration of compound eliciting a 50% inhibition of cell proliferation. The protocol: as §1
The test system of assay [7] is MCF7 (breast). As to the kind of experiment: In vitro cytotoxic activity assay (MTT), MCF7. It counts as cell-based. The note with it: Homo sapiens; MCF7 (breast) cells, exposed for 96 hours; read-out: IC50, concentration of compound eliciting a 50% inhibition of cell proliferation. The protocol: as §1
For assay [8], the system named is MDA-MB-231 (breast). The assay can be described thus: In vitro cytotoxic activity assay (MTT), MDA-MB-231. The settings on record: Homo sapiens; MDA-MB-231 (breast) cells, exposed for 96 hours; read-out: IC50, concentration of compound eliciting a 50% inhibition of cell proliferation. Format: cell-based. The protocol:
as §1

For assay [9], the target named is T1, recombinant human CK2 (Homo sapiens, UniProt P68400).
T1 construct: purchased Millipore
T1 sequence (P68400 whole entry): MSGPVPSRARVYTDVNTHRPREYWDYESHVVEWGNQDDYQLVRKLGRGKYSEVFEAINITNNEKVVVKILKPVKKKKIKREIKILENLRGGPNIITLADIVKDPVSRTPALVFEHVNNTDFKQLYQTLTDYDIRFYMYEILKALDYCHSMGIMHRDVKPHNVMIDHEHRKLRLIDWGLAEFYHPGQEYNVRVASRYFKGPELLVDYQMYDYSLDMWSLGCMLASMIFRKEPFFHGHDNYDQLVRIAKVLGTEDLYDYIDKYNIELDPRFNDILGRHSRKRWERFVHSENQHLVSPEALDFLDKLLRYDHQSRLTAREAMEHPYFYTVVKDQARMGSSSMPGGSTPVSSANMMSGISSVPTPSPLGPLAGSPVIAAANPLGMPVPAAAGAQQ
T1 sequence (P67870 whole entry partner): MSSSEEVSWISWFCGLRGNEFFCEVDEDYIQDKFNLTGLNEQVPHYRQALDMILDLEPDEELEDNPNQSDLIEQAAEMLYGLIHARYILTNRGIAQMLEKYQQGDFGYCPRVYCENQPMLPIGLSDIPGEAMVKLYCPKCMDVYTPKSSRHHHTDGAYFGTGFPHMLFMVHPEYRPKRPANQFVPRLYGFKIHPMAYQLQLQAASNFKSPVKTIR
The assay can be described thus: CK2 Kinase Assay (33P-ATP, substrate peptide RRRDDDSDDD). Format: biochemical. The note with it: final ATP concentration 15 μM, 10 min at 30° C., eight concentrations; read-out: protein kinase CK2 IC50. The protocol: CK2 Kinase Assay was conducted using the protocol as described in Pierre F. et al; J. Med. Chem. 2011, 54, 635-654. The tested compounds in aqueous solution were added at a volume of 10 μL to a reaction mixture comprising 10 μL of assay dilution buffer (ADB; 20 mM MOPS, pH 7.2, 25 mM β-glycerol phosphate, 5 mM EGTA, 1 mM sodium orthovanadate, and 1 mM dithiothreitol), 10 μL of substrate peptide (RRRDDDSDDD, dissolved in ADB at a concentration of 1 mM), 10 μL of recombinant human CK2 (RROP-holoenzyme, 25 ng dissolved in ADB; Millipore). Reactions were initiated by the addition of 10 μL of ATP solution (90% 75 mMMgCl2, 75 μM ATP (final ATP concentration:15 μM) dissolved in ADB; 10% [γ-33P] ATP (stock 1 mCi/100 μL; 3000 Ci/mmol (Perkin-Elmer) and maintained for 10 min at 30° C. The reactions were quenched with 100 μL of 0.75% phosphoric acid and then transferred to and filtered through a phosphor cellulose filter plate (Millipore). After washing each well five times with 0.75% phosphoric acid, the plate was dried under vacuum for 5 min and, following the addition of 15 μL of scintillation fluid to each well, the residual radioactivity was measured using a Wallac luminescence counter. The IC50 values were derived from eight concentrations of test inhibitors.

For the molecule `O=C(O)c1ccc2c(c1)nc(Nc1cccc(Cl)c1)c1[nH]cc(C(=O)O)c12` [Compound 1, 4-((3-chlorophenyl)amino)-3H-pyrrolo[2,3-c]quinoline-1,7-dicarboxylic acid], the IC50 is 1300 nM in assay [1]; 1700 nM in [2]; 2200 nM in assay [3]; 1900 nM in assay [4]; 1400 nM in assay [5]; 3100 nM in assay [6]. Further, the IC50 was 6200 nM in assay [7], 4600 nM in assay [8] and 35 nM in [9].
